Results reported in PubChem BioAssay AID330 (DTP/NCI, 2004).
Several values for one entry are separate records, joined by “and”; a condition that tells them apart may be missing. Equal entries are not always repeated. Toxic doses and inconclusive results are not listed.

Tested on: P388 leukemia ip, CD2F1 mice, survival T/C
Assay: NCI In Vivo Anticancer Drug Screen. Data for tumor model P388 Leukemia (intraperitoneal) in CD2F1 (CDF1) mice
Details: endpoint: median survival time, higher = longer survival
In short: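 Mice carrying the transplanted tumor received test compound or vehicle. Survival was recorded in each group, and the value is the treated-group measurement divided by that of the vehicle-treated control group.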

[1] = dose: 100.0 mg/kg/injection, schedule: Q04DX003 (ip), vehicle: saline with Tween-80
[2] = dose: 200.0 mg/kg/injection, schedule: Q04DX003 (ip), vehicle: saline with Tween-80
[3] = dose: 60.0 mg/kg/injection, schedule: Q01DX005 (ip), vehicle: saline with Tween-80
[4] = dose: 240.0 mg/kg/injection, schedule: Q01DX005 (ip), vehicle: saline with Tween-80
[5] = dose: 12.5 mg/kg/injection, schedule: Q01DX009 (ip), vehicle: saline with Tween-80
[6] = dose: 25.0 mg/kg/injection, schedule: Q01DX009 (ip), vehicle: saline with Tween-80
[7] = dose: 50.0 mg/kg/injection, schedule: Q01DX005 (ip), vehicle: saline with Tween-80
[8] = dose: 100.0 mg/kg/injection, schedule: Q01DX005 (ip), vehicle: saline with Tween-80
[9] = dose: 200.0 mg/kg/injection, schedule: Q01DX005 (ip), vehicle: saline with Tween-80
[10] = dose: 120.0 mg/kg/injection, schedule: Q01DX005 (ip), vehicle: saline with Tween-80
[11] = dose: 12.5 mg/kg/injection, schedule: Q01DX005 (ip), vehicle: saline with Tween-80
[12] = dose: 25.0 mg/kg/injection, schedule: Q01DX005 (ip), vehicle: saline with Tween-80

## CSCCC(NC=O)C(=O)NC(CC(C)C)C(=O)NC(Cc1ccccc1)C(=O)O (stereo unspecified)
dose: 12.5 mg/kg/injection, schedule: Q01DX005 (ip), vehicle: distilled water + Tween-80
  T/C: 98 % of control
dose: 25.0 mg/kg/injection, schedule: Q01DX005 (ip), vehicle: distilled water + Tween-80
  T/C: 98 % of control
dose: 50.0 mg/kg/injection, schedule: Q01DX005 (ip), vehicle: distilled water + Tween-80
  T/C: 100 % of control
dose: 100.0 mg/kg/injection, schedule: Q01DX005 (ip), vehicle: distilled water + Tween-80
  T/C: 89 % of control
dose: 200.0 mg/kg/injection, schedule: Q01DX005 (ip), vehicle: distilled water + Tween-80
  T/C: 97 % of control

## COC(=O)C1(C2CCCCCCCCCCC2=O)NC(=S)NC(=O)C1C#N (stereo unspecified)
dose: 60.0 mg/kg/injection, schedule: Q01DX005 (ip), vehicle: saline
  T/C: 96 % of control
dose: 120.0 mg/kg/injection, schedule: Q01DX005 (ip), vehicle: saline
  T/C: 92 % of control
dose: 240.0 mg/kg/injection, schedule: Q01DX005 (ip), vehicle: saline
  T/C: 92 % of control

## OCc1ccccc1
dose: 0.12 % in 0.5 ml injection vol, schedule: Q01DX009 (ip), vehicle: water
  T/C: 94 % of control
dose: 0.25 % in 0.5 ml injection vol, schedule: Q01DX009 (ip), vehicle: water
  T/C: 94 % of control
dose: 0.5 % in 0.5 ml injection vol, schedule: Q01DX009 (ip), vehicle: water
  T/C: 100 % of control and 103 % of control
dose: 1.0 % in 0.5 ml injection vol, schedule: Q01DX009 (ip), vehicle: water
  T/C: 95 % of control and 98 % of control
dose: 2.0 % in 0.5 ml injection vol, schedule: Q01DX009 (ip), vehicle: water
  T/C: 98 % of control

## CN(C)CCCOC1=Nc2ccccc2O/C1=C/c1cccs1
dose: 25.0 mg/kg/injection, schedule: Q04DX003 (ip), vehicle: saline
  T/C: 94 % of control
dose: 50.0 mg/kg/injection, schedule: Q04DX003 (ip), vehicle: saline
  T/C: 94 % of control
dose: 100.0 mg/kg/injection, schedule: Q04DX003 (ip), vehicle: saline
  T/C: 100 % of control and 94 % of control

## C=C1CC2(CCCCC2c2ccccc2)OC1=O (stereo unspecified)
dose: 100.0 mg/kg/injection, schedule: Q04DX002 (ip), vehicle: Klucel (hydroxypropylcellulose) (HPC)
  T/C: 97 % of control
dose: 200.0 mg/kg/injection, schedule: Q04DX002 (ip), vehicle: Klucel (hydroxypropylcellulose) (HPC)
  T/C: 103 % of control
dose: 400.0 mg/kg/injection, schedule: Q04DX002 (ip), vehicle: Klucel (hydroxypropylcellulose) (HPC)
  T/C: 103 % of control

## Cc1cc(C)nc(NCCCCCCNc2nc(C)cc(C)n2)n1
[1]
  T/C: 101 % of control
[2]
  T/C: 90 % of control
dose: 400.0 mg/kg/injection, schedule: Q04DX003 (ip), vehicle: saline with Tween-80
  T/C: 92 % of control

## O=C(CSc1nnc(CSc2ccc(Cl)cc2)n1-c1ccccc1)NC(=O)Nc1ccccc1
dose: 7.5 mg/kg/injection, schedule: Q01DX005 (ip), vehicle: saline with Tween-80
  T/C: 94 % of control
dose: 15.0 mg/kg/injection, schedule: Q01DX005 (ip), vehicle: saline with Tween-80
  T/C: 90 % of control
dose: 30.0 mg/kg/injection, schedule: Q01DX005 (ip), vehicle: saline with Tween-80
  T/C: 86 % of control
[3]
  T/C: 88 % of control
[4]
  T/C: 89 % of control (2×) and 96 % of control

## COc1cc(NC(=O)CCl)ccc(=O)c1
[5]
  T/C: 95 % of control
[6]
  T/C: 113 % of control

## CNC(=O)N(C)C1=NC(O)(c2ccccc2)C(c2ccccc2)=N1 (stereo unspecified)
dose: 100.0 mg/kg/injection, schedule: Q04DX002 (ip), vehicle: saline with Tween-80
  T/C: 87 % of control

## CN(C)C1CC(N2c3ccccc3Sc3ccc(Cl)cc32)C1 (stereo unspecified)
dose: 50.0 mg/kg/injection, schedule: Q04DX003 (ip), vehicle: Klucel (hydroxypropylcellulose) (HPC)
  T/C: 107 % of control
dose: 100.0 mg/kg/injection, schedule: Q04DX003 (ip), vehicle: Klucel (hydroxypropylcellulose) (HPC)
  T/C: 104 % of control
dose: 200.0 mg/kg/injection, schedule: Q04DX003 (ip), vehicle: Klucel (hydroxypropylcellulose) (HPC)
  T/C: 107 % of control

## CNC1C(OC2C(OC3C(O)C(O)C(N=C(N)N)C(O)C3N=C(N)N)OC(C)C2(O)/C=N/NC(N)=S)OC(CO)C(O)C1O (stereo unspecified)
[7]
  T/C: 101 % of control
[8]
  T/C: 100 % of control
[9]
  T/C: 103 % of control

## C=C1CC(NCC(=O)OCC)=C(O)C1=O
dose: 25.0 mg/kg/injection, schedule: Q01DX005 (ip), vehicle: Klucel (hydroxypropylcellulose) (HPC)
  T/C: 93 % of control
dose: 50.0 mg/kg/injection, schedule: Q01DX005 (ip), vehicle: Klucel (hydroxypropylcellulose) (HPC)
  T/C: 90 % of control
dose: 100.0 mg/kg/injection, schedule: Q01DX005 (ip), vehicle: Klucel (hydroxypropylcellulose) (HPC)
  T/C: 94 % of control

## CC[C@@H]1O[C@@H]([C@@H]2CC[C@](O)([C@]3(C)CC[C@@H]([C@@H](C)[C@@]4(O)CC[C@H](C)[C@@H](C[C@@]5(O)O[C@@H]([C@@H](C)[C@H](O)C[C@H]6CC[C@H](C)[C@@H]([C@@H](C)C(=O)O)O6)CC[C@@H]5C)O4)O3)O2)CC[C@@]1(C)O
dose: 0.12 mg/kg/injection, schedule: Q01DX009 (ip), vehicle: saline with Tween-80
  T/C: 109 % of control
dose: 0.25 mg/kg/injection, schedule: Q01DX009 (ip), vehicle: saline with Tween-80
  T/C: 111 % of control

## Clc1ccc(C(CCOc2ccccc2Br)Cn2ccnc2)c(Cl)c1 (stereo unspecified)
[5]
  T/C: 89 % of control
[6]
  T/C: 90 % of control
dose: 50.0 mg/kg/injection, schedule: Q01DX009 (ip), vehicle: saline with Tween-80
  T/C: 101 % of control and 94 % of control

## Nc1c(O)c(S(=O)(=O)O)c(O)c2c1C(=O)c1ccccc1C2=O
[3]
  T/C: 100 % of control
[10]
  T/C: 98 % of control

## O=C(NCCCCCCCCCNC(=O)C12CC3CC(CC(C3)C1)C2)C12CC3CC(CC(C3)C1)C2
[11]
  T/C: 93 % of control
[12]
  T/C: 93 % of control
[7]
  T/C: 88 % of control
[9]
  T/C: 90 % of control

## CCOC(=O)C(=CC(CC)(C(=O)OCC)C(=O)OCC)C(=O)OCC
[1]
  T/C: 110 % of control
[2]
  T/C: 110 % of control
dose: 300.0 mg/kg/injection, schedule: Q04DX003 (ip), vehicle: saline
  T/C: 109 % of control
dose: 450.0 mg/kg/injection, schedule: Q04DX003 (ip), vehicle: saline
  T/C: 100 % of control
dose: 600.0 mg/kg/injection, schedule: Q04DX003 (ip), vehicle: saline
  T/C: 109 % of control

## Cc1ccc(Cl)cc1N=Cc1cccs1
dose: 50.0 mg/kg/injection, schedule: Q01DX009 (ip), vehicle: Klucel (hydroxypropylcellulose) (HPC)
  T/C: 97 % of control
dose: 100.0 mg/kg/injection, schedule: Q01DX009 (ip), vehicle: Klucel (hydroxypropylcellulose) (HPC)
  T/C: 105 % of control
dose: 200.0 mg/kg/injection, schedule: Q01DX009 (ip), vehicle: Klucel (hydroxypropylcellulose) (HPC)
  T/C: 108 % of control

## CCN(CC)CCCC(C)NS(=O)(=O)c1cccc2c(N(C)C)cccc12 (stereo unspecified)
dose: 6.25 mg/kg/injection, schedule: Q01DX009 (ip), vehicle: water
  T/C: 96 % of control
dose: 12.5 mg/kg/injection, schedule: Q01DX009 (ip), vehicle: water
  T/C: 97 % of control
dose: 25.0 mg/kg/injection, schedule: Q01DX009 (ip), vehicle: water
  T/C: 93 % of control
dose: 50.0 mg/kg/injection, schedule: Q01DX009 (ip), vehicle: water
  T/C: 96 % of control
dose: 100.0 mg/kg/injection, schedule: Q01DX009 (ip), vehicle: water
  T/C: 99 % of control

## C/C(=N\OCC(O)CNCCNC(=O)C(C)C)c1ccc(N(C)C)cc1 (stereo unspecified)
dose: 60.0 mg/kg/injection, schedule: Q01DX005 (ip), vehicle: Klucel (hydroxypropylcellulose) (HPC)
  T/C: 98 % of control
dose: 120.0 mg/kg/injection, schedule: Q01DX005 (ip), vehicle: Klucel (hydroxypropylcellulose) (HPC)
  T/C: 99 % of control

## O=C(O)c1ccc(C(=O)c2ccc([N+](=O)[O-])cc2)cc1
[3]
  T/C: 103 % of control
[10]
  T/C: 104 % of control
[4]
  T/C: 103 % of control

## CC(C)NC(=O)c1ccc(N/N=[N+](/C)[O-])cc1
dose: 6.25 mg/kg/injection, schedule: Q01DX005 (ip), vehicle: saline with Tween-80
  T/C: 97 % of control
[11]
  T/C: 99 % of control
[12]
  T/C: 98 % of control
[7]
  T/C: 92 % of control
[8]
  T/C: 102 % of control

## COc1cccc2c1C(=O)c1c(O)c3c(c(O)c1C2=O)C[C@@](O)(/C(C)=N\NC(=O)CCC(N)C(=O)O)C[C@@H]3OC1CC(N)C(O)C(C)O1 (stereo partly specified) (tested in a mixture with another compound)
dose: 18.75 mg/kg/injection, schedule: Q04DX003 (ip), vehicle: water
  T/C: 121 % of control
dose: 75.0 mg/kg/injection, schedule: Q04DX003 (ip), vehicle: water
  T/C: 121 % of control
dose: 300.0 mg/kg/injection, schedule: Q04DX003 (ip), vehicle: water
  T/C: 163 % of control
